Entries after “also recorded” stand apart in the source; their conditions may differ.
Columns and labels:
[1] = format: physicochemical
Excerpt: The pentapeptide LPRDA was synthesized using the solid-phase peptide 9-fluorenylmethoxycarbonyl chemistry method. […] HRMS (ESI, m/z): [M + H]^+ calculated for C24H42N8O8, 571.3204; found, 571.3188.

[2] = system: S. aureus ATCC 43300 (MRSA) biofilm; experiment: Inhibition of biofilm formation assay; format: cell-based, Staphylococcus aureus; conditions: 24 h
Description: (§1) The assay was performed according to the protocol described by O’Toole, with minor modifications. To evaluate the effect of LPRDA on biofilm formation by the S. aureus ATCC 29213 and S. aureus ATCC 43300 strains, 150 µL of sterile LB broth with 4% glucose containing 12.5–100 µmol/L concentrations of LPRDA was added to four wells of 96-well plates. Then, 50 µL of staphylococcal culture (1 × 10^7 CFU/mL) was added and incubated at 37 °C for 24 h. LB culture broth that was not treated with LPRDA was used as the positive control. After 24 h, the plates were washed with PBS to remove planktonic and dead cells, stained with a 0.1% solution of gentian violet for 20 min, followed by extraction of the bound dye with 96% ethanol. The optical density (OD) of the obtained extracts was measured at 570 nm using a SPECTROstar Nano spectrophotometer.
(§2) The bacterial strains were classified into categories according to the Stepanović criteria. Quantitative calculation of S. aureus CFU in the biofilm formed in the presence of LPRDA and in the control experiments was assessed by inoculation on Columbia agar according to the Koch procedure. Inhibition of biofilm formation was determined according to the Kumari method.

[3] = system: S. aureus ATCC 29213 (MSSA) biofilm; experiment: Inhibition of biofilm formation assay; format: cell-based, Staphylococcus aureus; conditions: 100 µmol/L LPRDA
Description: as §1, §2

S. aureus = conditions: cited from earlier work
Excerpt: This concentration is at least eight times higher than those used for inducing antiadhesive effects, which is consistent with the LPRDA MIC > 200 µmol/L reported in [18]. A lack of bactericidal activity is an essential property for antivirulence therapeutics. The following experiments have found differ ...

S. aureus SrtA = conditions: read-out: IC50 inhibition of the recombinant enzyme; cited from earlier work
[4] = system: S. aureus-induced mastitis; conditions: mouse model; cited from earlier work
Excerpt: Only a few SrtA inhibitors have been evaluated in vivo, and so far, none have advanced to clinical trials, which would necessitate an actual efficacy evaluation and follow-up of the in-depth studies of these compounds [17]. […] Due to our interest in the development of novel antibacterials with antiadhesive mechanisms of action, we selected a reference compound with ...

[5] = system: community-associated MRSA strain USA300; conditions: 25 µmol/L LPRDA, compared with srtA mutants; cited from earlier work
Description: Wang et al. studied the community-associated MRSA strain USA300 and its srtA mutants in a biofilm formation assay. […] We studied the influence of LPRDA at concentrations of 12.5 to 100 µmol/L on biofilm production by the MSSA and MRSA strains used in this adhesion experiment. We observed a concentration-dependent decrease in the amount of biofilm formed by the S. aureus ATCC 29213 (MSSA) strain when it was incubated with increasing concentrations of LPRDA (F ...

[6] = system: S. aureus ATCC 29213 (MSSA) adhesion to Vero cells; experiment: Adhesion of LPRDA-modified S. aureus to Vero cells; format: cell-based, Staphylococcus aureus; conditions: for AI (adhesion index): control 5.2 ± 0.3; for PI (percentage of infected cells): control 100; for ML (microbial load, AI×PI): control 516.7 ± 31.1
Description: (§3) The influence of LPRDA on staphylococcal adhesive properties was evaluated using preliminary incubation of the studied bacterial strains with LPRDA for 18 h and subsequent microscopic detection of adhesion cases of the modified staphylococci to African green monkey kidney epithelial cells (Vero). The following parameters were determined from the adhesion experiments: adhesion index (AI), defined as the average number of attached bacterial cells per eukaryotic cell; percentage of infected cells (PI), defined as the proportion of Vero cells with bacteria adhered to their surface; microbial load (ML), defined as a product AI×PI; and adhesion inhibition index (AII), defined as the ratio of experimental AI to control.
(§4) Vero cells were seeded in 96-well plates at 25 × 10^3 cells/well and grown overnight. Bacterial cells (S. aureus ATCC 29213 or S. aureus ATCC 43300) were incubated with the oligopeptide LPRDA in the concentration range 12.5–100 µmol/L at 37 °C for 18 h with constant shaking at 100 rpm. Luria–Bertani (LB) medium and untreated bacteria served as a control. After incubation, the bacterial suspension was centrifuged at 10,000× g rpm for 10 min and washed twice with sterile PBS for 5 min at 10,000 rpm. The final bacterial concentrations were adjusted to the OD560 of 0.3 McFarland in sterile saline. Next, the monolayer of Vero cells in the 96-well plates was inoculated with 100 μL of the bacterial suspension with an equal volume of the stock DMEM culture medium and incubated for 1 h. The monolayer was washed three times with phosphate-buffered saline (PBS), followed by fixation with 4% formaldehyde for 60 min. Then, the wells of the plates were washed twice with PBS, dried, and stained with purified gentian violet solution (1%) for 15 min. The dye was removed, and images were captured in […] at 40× using an Evos FL microscope (Thermo Fisher Scientific, Waltham, MA, USA). Images were captured in 4–10 random fields of view at 40-fold magnification using an Evos FL microscope. Images were analyzed using ImageJ Fiji software v1.53c.

[7] = system: S. aureus ATCC 43300 (MRSA) adhesion to Vero cells; experiment: Adhesion of LPRDA-modified S. aureus to Vero cells; format: cell-based, Staphylococcus aureus; conditions: for AI (adhesion index) / PI (percentage of infected cells) / ML (microbial load, AI×PI): 18 h pre-incubation; for AI (adhesion index): control 7.6 ± 0.1; for PI (percentage of infected cells): control 100; for ML (microbial load, AI×PI): control 755.9 ± 10.6
Description: as §3, §4

[8] = MSSA pre-incubated 18 h with 100 µmol/L LPRDA, then 1 h with Vero cells, mean ± SD
[9] = MSSA, 12.5 µmol/L LPRDA, 18 h pre-incubation
[10] = MSSA, 25 µmol/L LPRDA, 18 h pre-incubation, mean ± SD
[11] = MSSA, 50 µmol/L LPRDA, 18 h pre-incubation, mean ± SD
[12] = MSSA, 100 µmol/L LPRDA, p = 0.021
[13] = highest studied LPRDA concentration (100 µmol/L), p = 0.01

Leu-Pro-Arg-Asp-Ala [LPRDA]
Solubility [1]: soluble in water | Decrease in biofilm formation (biomass) ([2]; 100 µmol/L LPRDA (maximum decrease), gentian violet OD 570 nm): 12% | Number of sessile bacteria versus control ([2]; 12.5–100 µmol/L LPRDA): No significant difference | Number of sessile bacterial cells in biofilm ([3]; 24 h, control 5 × 10^6 CFU/mL, inoculation on Columbia agar): 5 × 10^5 CFU/mL | Reduction in biofilm ([3]; 24 h, gentian violet OD 570 nm): 44% | Decrease in sessile cell bacteria number ([3]; 24 h incubation): 10 fold | MIC (S. aureus): > 200 µM | IC50 (S. aureus SrtA): 10.6 µM | Protection against S. aureus-induced mastitis [4]: demonstrated protection against S. aureus-induced mastitis | Biofilm formation [5]: attenuated biofilm formation to the level of knocked out bacteria | AI (adhesion index) [6, 8]: 3.4 ± 0.4; 0.021 | PI (percentage of infected cells) [6, 8]: 84.0 ± 2.8; 0.021% | ML (microbial load, AI×PI) [6, 8]: 286.9 ± 38.8; 0.009 | AI (adhesion index) [6, 9]: 5.4; 0.53 | PI (percentage of infected cells) [6, 9]: 100; 0.53% | ML (microbial load, AI×PI) [6, 9]: 542.9; 0.53 | AI (adhesion index) [6, 10]: 4.8 ± 0.2; 0.43 | PI (percentage of infected cells) [6, 10]: 99.0 ± 0.8; 0.373% | ML (microbial load, AI×PI) [6, 10]: 471.1 ± 26.5; 0.414 | AII (adhesion inhibition index, ratio of experimental AI to control) ([6]; MSSA, 50 µmol/L LPRDA): 55.8% | AI (adhesion index) [6, 11]: 2.9 ± 0.2; 0.01 | PI (percentage of infected cells) [6, 11]: 85.0 ± 4.6; 0.054% | ML (microbial load, AI×PI) [6, 11]: 240.8 ± 9.2; 0.002 | AII (adhesion inhibition index, ratio of experimental AI to control) ([6]; MSSA, 100 µmol/L LPRDA): 65.4% | AI reduction ([6]; MSSA, 100 µmol/L LPRDA, 1 h incubation with Vero cells): 1.5 times | ML decrease relative to the control ([6]; MSSA, 100 µmol/L LPRDA, p = 0.009): 45% | AI decrease relative to the control [6, 12]: 34.6% | PI decrease relative to the control [6, 12]: 16% | Antiadhesive effect ([6]; MSSA, LPRDA concentrations below 50 µmol/L): did not have a notable antiadhesive effect | AI (adhesion index) ([7]; 12.5 µmol/L LPRDA): 7.9; 0.056 | PI (percentage of infected cells) ([7]; 12.5 µmol/L LPRDA): 100; – % | ML (microbial load, AI×PI) ([7]; 12.5 µmol/L LPRDA): 790.2; 0.056 | PI (percentage of infected cells) ([7]; 25 µmol/L LPRDA): 100; – % | AI (adhesion index) ([7]; 25 µmol/L LPRDA, mean ± SD): 7.4 ± 0.1; 0.516 | ML (microbial load, AI×PI) ([7]; 25 µmol/L LPRDA, mean ± SD): 744.2 ± 8.3; 0.516 | PI (percentage of infected cells) ([7]; 50 µmol/L LPRDA): 100; – % | AI (adhesion index) ([7]; 50 µmol/L LPRDA, mean ± SD): 7.3 ± 0.2; 0.332 | ML (microbial load, AI×PI) ([7]; 50 µmol/L LPRDA, mean ± SD): 727.4 ± 18.2; 0.33 | PI (percentage of infected cells) ([7]; 100 µmol/L LPRDA): 100; – % | ML (microbial load, AI×PI) ([7]; 100 µmol/L LPRDA, mean ± SD): 679.2 ± 13.6; 0.01 | AI (adhesion index) ([7]; 100 µmol/L LPRDA, then 1 h with Vero cells, mean ± SD): 6.8 ± 0.1; 0.01 | Antiadhesive effect ([7]; 12.5–100 µmol/L LPRDA): did not induce an appreciable antiadhesive effect; also recorded: did not induce a significant antiadhesive effect | AI lower than the control [7, 13]: approximately 10% | ML lower than the control [7, 13]: approximately 10%

Reference: publication PMC9774600, “Oligopeptide Sortase Inhibitor Modulates Staphylococcus aureus Cell Adhesion and Biofilm Formation” (Antibiotics, 2022)
